Measured values published in US8288396B2, “Pyrimidopyrimidoindazole derivative” (MSDKK, priority 2009, dated 2012).

Key:
[1] = target: T1, Wee1 kinase (Homo sapiens, UniProt P30291); assay: Wee1 kinase inhibitory effect (Pharmacological Test 1); format: biochemical; details: GST-tagged Wee1 kinase, Poly(Lys, Tyr) substrate, 10 μM ATP, 30° C. for 30 minutes
T1 construct: made in house; host or cells: Sf9 insect cells (recombinant baculovirus)
From the text: Pharmacological Test 1 (Wee1 Kinase Inhibitory Effect)
(1) Purification of Wee1 Kinase
A cDNA of Wee1 kinase with […] (GST) fused at the amino terminal thereof was inserted into a baculovirus expression vector to construct a recombinant baculovirus, with which cells of an insect cell line Sf9 were infected to overexpress the target protein. The infected cells were collected and lysed, and then the GST-tagged Wee1 kinase protein was adsorbed to a glutathione column and eluted from the column with glutathione, and the active fraction was desalted in a desalting column to give a purified enzyme.
(2) Measurement of Wee1 Kinase Activity
In measurement of the Wee1 kinase activity, a synthetic peptide, Poly(Lys, Tyr) hydrobromide (Lys:Tyr (4:1)) purchased from Sigma was used as the substrate.
The amount of the reaction mixture was 21.1 μL; and the composition of the reaction buffer was 50 mM Tris-HCl buffer (pH 7.4)/10 mM magnesium chloride/1 mM dithiothreitol. The purified Wee1 kinase, 2.5 μg of the substrate peptide, 10 μM of non-labeled adenosine triphosphate (ATP) and 1 μCi of [γ-^33P]-labeled ATP (2500 Ci/mmol or more) were added to the reaction buffer, and the resulting mixture was incubated at 30° C. for 30 minutes. Thereafter, 10 μL of 350 mM phosphate buffer was added to the reaction system to stop the reaction. The substrate peptide was adsorbed on a P81 paper filter 96-well plate and the plate was washed several times with 130 mM phosphate buffer, and the radioactivity thereof was counted using a liquid scintillation counter. The [γ-^33P]-labeled ATP was purchased from Amersham Bioscience, Ltd.
The addition of a test compound to the reaction system was carried out by preparing a series of dilutions of the compound with dimethyl sulfoxide (DMSO) and adding 1.1 μL of each dilution to the reaction system. As a control, 1.1 μL of DMSO was added to the reaction system.

[2] = tested on: Cdc2 (Cdk1) tyrosine-15 phosphorylation; assay: Inhibitory effect on Cdc2 (Cdk1) tyrosine-15 phosphorylation in NCI-H1299 cells (Pharmacological Test 2); format: cell-based; details: Homo sapiens, camptothecin 200 nM 16 hours, then test compound with nocodazole 8 hours, ELISA, read-out: Cdc2-Y15 Phosphorylation-Inhibitory Effect (H1299, +camptothecin) (EC50)
From the text: Pharmacological Test 2 (Method for Determining Drug Effect Using Cells (Inhibitory Effect on Cdc2 (Cdk1) Tyrosine-15 Phosphorylation))
Fetal bovine serum (FBS) was purchased from Morgate, Inc.; an RPMI-1640 medium and a DMEM medium were purchased from Invitrogen, Inc.; camptothecin was purchased from Sigma Co.; gemcitabine was purchased from Eli Lilly Japan K.K.; nocodazole and protease inhibitor cocktail were purchased from Sigma Co.; a rabbit anti-Cdc2 antibody and a mouse anti-Cdc2 antibody were purchased from Santa Cruz Biotechnology, Inc.; a rabbit anti-tyrosine-15-phosphorylated Cdc2 antibody and a horseradish peroxidase-labeled anti-mouse IgG antibody were purchased from Cell Signaling Technology, Inc.; and Sure Blue Reserve TMB peroxidase substrate was purchased from Kirkegaard & Perry Laboratories, Inc.
A human non-small cell lung cancer cell line (NCI-H1299) and a human colon cancer cell line (WiDr) can be obtained from American Type Culture Collection (ATCC).
In the method using NCI-H1299 cells, the cells were suspended in an RPMI-1640 medium supplemented with 10% FBS, and 100 μL of the resulting cell suspension was dispensed in a Nunclon Delta treated 96-well plastic plate purchased from Nunc, Inc. at a density of 2000 cells per well, and the plate was incubated overnight at 37° C. under an atmosphere of 5% CO2 and 95% air. Camptothecin was dissolved in dimethyl sulfoxide (DMSO) and further the resulting solution was diluted with an RPMI-1640 medium supplemented with 10% FBS. Then, 50 μL of the diluted solution was added to each well of the plate in which the cells were seeded in advance such that the final concentration of camptothecin was 200 nM, and the plate was incubated at 37° C. under an atmosphere of 5% CO2 and 95% air for 16 hours. A test compound was serially diluted with DMSO, and further diluted with an RPMI-1640 medium supplemented with 10% FBS containing 4000 nM nocodazole. Then, 50 μL of the test compound solution was added to each well of the plate in which the cells treated with camptothecin were seeded, and the plate was incubated at 37° C. under an atmosphere of 5% CO2 and 95% air for 8 hours. Then, the culture medium was removed from each well and 100 μL of a cell lysis buffer was added to each well, and the plate was shaken at 4° C. for 2 hours, and thereafter the liquid in the plate was frozen at −80° C. and then thawed, which was used as a lysed cell solution. Cdc2 and tyrosine-15-phosphorylated Cdc2 in this lysed cell solution were measured by an enzyme-linked immunosorbent assay (ELISA method), and a ratio of tyrosine-15-phosphorylated Cdc2 to Cdc2 was calculated to determine a 50% effective concentration (EC50, nM) of the test compound for inhibition of phosphorylation in cells. The cell lysis buffer as used herein is an aqueous solution containing 20 mM HEPES (pH 7.5), 150 mM sodium chloride, 1 mM disodium ethylenediamine tetraacetate, 0.1% polyoxyethylene (10) octylphenyl ether, 1% protease inhibitor cocktail, 1 mM dithiothreitol, 2 mM sodium orthovanadate, 10 mM sodium fluoride and 10 mM glycerol diphosphate. The measurement of Cdc2 by the ELISA method was carried out as follows. 50 μL of a solution of a rabbit anti-Cdc2 antibody obtained by diluting the antibody to 200 times with 50 mM carbonate-bicarbonate buffer (pH 9.6) was dispensed into each well of a 96-well Maxisorb immunoplate purchased from Nunc, Inc., and the immunoplate was let stand overnight at 4° C. to immobilize the antibody thereto. Subsequently, each well was washed three times with phosphate buffered saline (PBS), and 300 μL of PBS containing 5% bovine serum albumin (5% BSA/PBS) was added to each well, and then, the immunoplate was let stand at room temperature for 2 hours. […]

T1 sequence (P30291 whole entry): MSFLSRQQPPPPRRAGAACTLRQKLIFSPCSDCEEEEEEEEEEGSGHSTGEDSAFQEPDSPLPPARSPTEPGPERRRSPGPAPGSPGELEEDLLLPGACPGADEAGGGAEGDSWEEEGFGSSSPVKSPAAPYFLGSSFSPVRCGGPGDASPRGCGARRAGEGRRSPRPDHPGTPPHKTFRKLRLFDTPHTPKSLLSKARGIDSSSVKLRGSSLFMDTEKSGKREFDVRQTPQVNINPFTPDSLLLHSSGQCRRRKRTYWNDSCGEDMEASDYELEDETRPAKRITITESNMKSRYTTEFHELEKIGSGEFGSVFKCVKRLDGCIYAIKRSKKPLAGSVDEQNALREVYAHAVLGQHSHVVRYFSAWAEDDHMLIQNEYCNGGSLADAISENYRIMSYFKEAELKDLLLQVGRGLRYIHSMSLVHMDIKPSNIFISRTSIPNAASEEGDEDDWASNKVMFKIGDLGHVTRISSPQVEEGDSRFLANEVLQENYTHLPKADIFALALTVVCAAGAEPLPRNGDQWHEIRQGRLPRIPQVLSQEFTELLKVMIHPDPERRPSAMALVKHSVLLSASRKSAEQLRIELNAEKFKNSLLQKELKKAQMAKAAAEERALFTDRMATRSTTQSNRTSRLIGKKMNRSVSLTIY

| Compound | IC50 [1] [nM] | EC50 [2] [nM] |
| --- | --- | --- |
| CN(C)[C@H]1CCN(c2ccc(Nc3ncc4c(=O)n5c(nc4n3)c3ccccc3n5-c3ncccn3)cc2)C1 [Example 79, 2-({4-[(3S)-3-(dimethylamino)pyrolidin-1-yl]phenyl}amino)-7-(pyrimidin-2-yl)pyrimido[4′,5′:4,5]pyrimido[1,2-b]indazol-5(7H)-one] | 24 | 370 |
| CN1CCc2ccc(Nc3ncc4c(=O)n5c(nc4n3)c3ccccc3n5-c3ncccn3)cc2C1 [Example 101, 2-[(2-methyl-1,2,3,4-tetrahydroisoquinolin-7-yl)amino]-7-(pyrimidin-2-yl)pyrimido[4′,5′:4,5]pyrimido[1,2-b]indazol-5(7H)-one] | 3.8 | 43 |

Further molecules by falling IC50 [1], results first:

| IC50 [1] [nM] | EC50 [2] [nM] | Compound |
| --- | --- | --- |
| 32 | 111 | Cc1cc(Nc2ncc3c(=O)n4c(nc3n2)c2ccccc2n4-c2ccccn2)ccc1N1CCN(C)CC1 [Example 21, 2-{[3-methyl-4-(4-methylpiperazin-1-yl)phenyl]amino}-7-(pyridin-2-yl)pyrimido[4′,5′:4,5]pyrimido[1,2-b]indazol-5(7H)-one] |
| 30 | 250 | Cc1cc(Nc2ncc3c(=O)n4c(nc3n2)c2ccccc2n4-c2ncccn2)ccc1OCCN(C)C [Example 90, 2-({4-[2-(dimethylamino)ethoxy]-3-methylphenyl}amino)-7-(pyrimidin-2-yl)pyrimido[4′,5′:4,5]pyrimido[1,2-b]indazol-5(7H)-one] |
| 3.9 | 38 | CN1CCc2ccc(Nc3ncc4c(=O)n5c(nc4n3)c3ccccc3n5-c3ccccn3)cc2C1 [Example 44, 2-[(2-methyl-1,2,3,4-tetrahydroisoquinolin-7-yl)amino]-7-(pyridin-2-yl)pyrimido[4′,5′:4,5]pyrimido[1,2-b]indazol-5(7H)-one] |
